Toxic doses and inconclusive results are not listed.

This assay relates to CD2F1 mice, L1210 leukemia ip, survival T/C. The assay can be described thus: NCI In Vivo Anticancer Drug Screen. Data for tumor model L1210 Leukemia (intraperitoneal) in CD2F1 (CDF1) mice. The conditions noted are these: higher = longer survival. The method, boiled down: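 Activity against a transplanted murine tumor was judged by comparing the compound group with a vehicle group. The outcome in the treated animals was divided by that in the controls.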

Setting [1] is: endpoint: mean survival time, dose: 100.0 mg/kg/injection, schedule: Q01DX009 (ip), vehicle: saline with Tween-80.
The mark [2] stands for this setting: endpoint: mean survival time, dose: 100.0 mg/kg/injection, schedule: Q04DX003 (ip), vehicle: saline with Tween-80.
Setting [3] is: endpoint: mean survival time, dose: 200.0 mg/kg/injection, schedule: Q04DX003 (ip), vehicle: saline with Tween-80.
[4] abbreviates: endpoint: mean survival time, dose: 400.0 mg/kg/injection, schedule: Q04DX003 (ip), vehicle: saline with Tween-80.
The mark [5] stands for this setting: endpoint: mean survival time, dose: 100.0 mg/kg/injection, schedule: Q01DX001 (ip), vehicle: saline with Tween-80.
The mark [6] stands for this setting: endpoint: mean survival time, dose: 200.0 mg/kg/injection, schedule: Q01DX001 (ip), vehicle: saline with Tween-80.
Setting [7] is: endpoint: mean survival time, dose: 400.0 mg/kg/injection, schedule: Q01DX001 (ip), vehicle: saline with Tween-80.
Setting [8] is: endpoint: mean survival time, dose: 50.0 mg/kg/injection, schedule: Q01DX009 (ip), vehicle: saline with Tween-80.
The mark [9] stands for this setting: endpoint: mean survival time, dose: 100.0 mg/kg/injection, schedule: Q01DX001 (ip), vehicle: saline.
The mark [10] stands for this setting: endpoint: mean survival time, dose: 200.0 mg/kg/injection, schedule: Q01DX001 (ip), vehicle: saline.
Setting [11] is: endpoint: mean survival time, dose: 400.0 mg/kg/injection, schedule: Q01DX001 (ip), vehicle: saline.
Setting [12] is: endpoint: mean survival time, dose: 100.0 mg/kg/injection, schedule: Q04DX003 (ip), vehicle: saline.
Where [13] appears, read: endpoint: mean survival time, dose: 100.0 mg/kg/injection, schedule: Q01DX009 (ip), vehicle: other.
The mark [14] stands for this setting: endpoint: mean survival time, dose: 200.0 mg/kg/injection, schedule: Q01DX009 (ip), vehicle: other.

Take `C=C(C)C1Cc2c(ccc3c2OC2COc4cc(OC)c(OC)cc4C2C3=O)O1` (stereo not drawn): the T/C was 92 % of control under setting [1]; 103 % of control under setting [2]; 93 % of control (endpoint: mean survival time, dose: 200.0 mg/kg/injection, schedule: Q01DX009 (ip), vehicle: saline with Tween-80); 101 % of control under setting [3]; 94 % of control (endpoint: mean survival time, dose: 400.0 mg/kg/injection, schedule: Q01DX009 (ip), vehicle: saline with Tween-80); 97 % of control under setting [4].

For `COC(=O)C(C(=O)OC)(C(=O)OC)C(=O)c1ccccc1`, the T/C is 104 % of control under setting [5], 96 % of control under setting [6] and 93 % of control under setting [7].

For `COc1cccc2c1C(=O)c1c(O)c3c(c(O)c1C2=O)C[C@H](O)C[C@@H]3OC1CC(N)C(O)C(C)O1` (stereo partly drawn), the T/C runs as follows: (endpoint: mean survival time, dose: 0.75 mg/kg/injection, schedule: Q01DX009 (ip), vehicle: saline) 107 % of control; (endpoint: mean survival time, dose: 1.5 mg/kg/injection, schedule: Q01DX009 (ip), vehicle: saline) 105 % of control; (endpoint: mean survival time, dose: 3.0 mg/kg/injection, schedule: Q01DX009 (ip), vehicle: saline) 111 % of control; (endpoint: mean survival time, dose: 3.0 mg/kg/injection, schedule: Q01DX009 (ip), vehicle: water) 121 % of control; (endpoint: mean survival time, dose: 6.0 mg/kg/injection, schedule: Q01DX009 (ip), vehicle: saline) 104 % of control; (endpoint: mean survival time, dose: 12.0 mg/kg/injection, schedule: Q01DX009 (ip), vehicle: saline) 115 % of control. Besides, the T/C was 118 % of control (endpoint: mean survival time, dose: 12.0 mg/kg/injection, schedule: Q01DX009 (ip), vehicle: water) and 152 % of control (endpoint: mean survival time, dose: 24.0 mg/kg/injection, schedule: Q01DX009 (ip), vehicle: water).

Take `CC1=C2C(=O)[C@H]3[C@@H](CC=C4C[C@@H](O)CC[C@@]43C)[C@@H]2CC[C@]12O[C@@H]1C[C@H](C)CN[C@H]1[C@H]2C`: the T/C is 100 % of control (endpoint: mean survival time, dose: 12.5 mg/kg/injection, schedule: Q01DX009 (ip), vehicle: saline with Tween-80); 93 % of control (endpoint: mean survival time, dose: 25.0 mg/kg/injection, schedule: Q01DX009 (ip), vehicle: saline with Tween-80); 91 % of control under setting [8]; 91 % of control under setting [6]; 88 % of control under setting [7].

`COC(=O)c1ncn(C2OC(COC(=O)c3ccccc3)C(OC(=O)c3ccccc3)C2OC(=O)c2ccccc2)c1C(=O)OC` (stereo not drawn): the T/C runs as follows: (endpoint: median survival time, dose: 8.75 mg/kg/injection, schedule: Q01DX005 (ip), vehicle: distilled water + Tween-80) 93 % of control; (endpoint: median survival time, dose: 12.5 mg/kg/injection, schedule: Q01DX005 (ip), vehicle: distilled water + Tween-80) 97 % of control; (endpoint: median survival time, dose: 25.0 mg/kg/injection, schedule: Q01DX005 (ip), vehicle: distilled water + Tween-80) 90 % of control; (endpoint: median survival time, dose: 35.0 mg/kg/injection, schedule: Q01DX005 (ip), vehicle: distilled water + Tween-80) 103 % of control; (endpoint: median survival time, dose: 50.0 mg/kg/injection, schedule: Q01DX005 (ip), vehicle: distilled water + Tween-80) 88 % of control; (endpoint: median survival time, dose: 100.0 mg/kg/injection, schedule: Q01DX005 (ip), vehicle: distilled water + Tween-80) 92 % of control. Moreover, the T/C (endpoint: median survival time, dose: 140.0 mg/kg/injection, schedule: Q01DX005 (ip), vehicle: distilled water + Tween-80) was 89 % of control and the T/C (endpoint: median survival time, dose: 200.0 mg/kg/injection, schedule: Q01DX005 (ip), vehicle: distilled water + Tween-80) was 97 % of control.

Consider `CN(C)/C(N)=N\c1nc(O)cc(=O)[nH]1`, for which the T/C was 102 % of control under setting [9], 96 % of control under setting [10] and 96 % of control under setting [11].

As to `CC(=O)OCC1OC(n2nc(CBr)cc2C(N)=O)C(OC(C)=O)C(OC(C)=O)C1OC(C)=O` (stereo not drawn), the T/C was 104 % of control (endpoint: mean survival time, dose: 12.5 mg/kg/injection, schedule: Q01DX005 (ip), vehicle: distilled water + Tween-80); 96 % of control (endpoint: mean survival time, dose: 25.0 mg/kg/injection, schedule: Q01DX005 (ip), vehicle: distilled water + Tween-80); 98 % of control (endpoint: mean survival time, dose: 50.0 mg/kg/injection, schedule: Q01DX005 (ip), vehicle: distilled water + Tween-80); 92 % of control (endpoint: mean survival time, dose: 100.0 mg/kg/injection, schedule: Q01DX005 (ip), vehicle: distilled water + Tween-80); 93 % of control (endpoint: mean survival time, dose: 200.0 mg/kg/injection, schedule: Q01DX005 (ip), vehicle: distilled water + Tween-80).

Take `CCOC(=O)NC(NC(=O)OCC)C(Cl)Cl`: the T/C runs as follows: under setting [5], 103 % of control; under setting [6], 105 % of control; under setting [7], 97 % of control.

In the case of `CCN(CC)C(=O)c1cc[n+](Cc2ccc(Cl)c(Cl)c2)cc1`, the T/C is 102 % of control under setting [8], 105 % of control under setting [1], 100 % of control under setting [2] and 102 % of control under setting [3].

For the molecule `Cc1nc(N)[nH]c(=O)c1Cc1ccccc1O`, the T/C reads like this: under setting [9], 100 % of control; under setting [10], 97 % of control; under setting [11], 97 % of control.

For the molecule `CC(=O)Nc1cccc(OCCCOc2cccc([N+](=O)[O-])c2)c1`, the T/C is, setting by setting: under setting [2], 95 % of control; under setting [3], 95 % of control; under setting [4], 92 % of control.

Consider `CN(C)CCSCC(=O)N1c2ccccc2Sc2ccccc21`, for which, under setting [12], the T/C was 96 % of control.

For `CC1(C)CC2(OC2c2cccc(Cl)c2)C(=O)c2ccccc21` (stereo not drawn), the T/C reads like this: under setting [13], 94 % of control; under setting [14], 94 % of control; (endpoint: mean survival time, dose: 400.0 mg/kg/injection, schedule: Q01DX009 (ip), vehicle: other) 91 % of control.

Consider `CN(C)C(=NC#N)N(C)C`, for which the T/C reads like this: (endpoint: mean survival time, dose: 100.0 mg/kg/injection, schedule: Q01DX009 (ip), vehicle: saline) 102 % of control; under setting [12], 100 % of control; (endpoint: mean survival time, dose: 200.0 mg/kg/injection, schedule: Q01DX009 (ip), vehicle: saline) 96 % of control; (endpoint: mean survival time, dose: 200.0 mg/kg/injection, schedule: Q04DX003 (ip), vehicle: saline) 95 % of control; (endpoint: mean survival time, dose: 400.0 mg/kg/injection, schedule: Q01DX009 (ip), vehicle: saline) 96 % of control; (endpoint: mean survival time, dose: 400.0 mg/kg/injection, schedule: Q04DX003 (ip), vehicle: saline) 97 % of control.

For the molecule `NCCSC(C[N+](=O)[O-])c1ccccc1Cl` (stereo not drawn), the T/C is 102 % of control (endpoint: median survival time, dose: 6.25 mg/kg/injection, schedule: Q01DX009 (ip), vehicle: saline); 107 % of control (endpoint: median survival time, dose: 12.5 mg/kg/injection, schedule: Q01DX009 (ip), vehicle: saline); 112 % of control (endpoint: median survival time, dose: 25.0 mg/kg/injection, schedule: Q01DX009 (ip), vehicle: saline); 123 % of control (endpoint: median survival time, dose: 50.0 mg/kg/injection, schedule: Q01DX009 (ip), vehicle: saline); 123 % of control (endpoint: median survival time, dose: 100.0 mg/kg/injection, schedule: Q01DX009 (ip), vehicle: saline).

As for `CCOC(=O)Nc1cc(NCCCCc2ccccc2)c(N)c(N)n1`, the T/C runs as follows: under setting [5], 102 % of control; under setting [6], 109 % of control.

For the molecule `CCOC(=O)CC(=O)COC(=O)CC(=O)OCC`, the T/C was 96 % of control (endpoint: mean survival time, dose: 12.5 mg/kg/injection, schedule: Q01DX009 (ip), vehicle: other); 100 % of control (endpoint: mean survival time, dose: 25.0 mg/kg/injection, schedule: Q01DX009 (ip), vehicle: other); 94 % of control (endpoint: mean survival time, dose: 50.0 mg/kg/injection, schedule: Q01DX009 (ip), vehicle: other); 97 % of control under setting [13]; 97 % of control under setting [14].

On to `O=P(Cl)(Oc1cccc2c(OP(=O)(Cl)N(CCCl)CCCl)cccc12)N(CCCl)CCCl` (stereo not drawn), for which the T/C is, setting by setting: (endpoint: mean survival time, dose: 31.25 mg/kg/injection, schedule: Q01DX001 (ip), vehicle: distilled water + Tween-80) 100 % of control; (endpoint: mean survival time, dose: 62.5 mg/kg/injection, schedule: Q01DX001 (ip), vehicle: distilled water + Tween-80) 101 % of control; (endpoint: mean survival time, dose: 125.0 mg/kg/injection, schedule: Q01DX001 (ip), vehicle: distilled water + Tween-80) 91 % of control; (endpoint: mean survival time, dose: 250.0 mg/kg/injection, schedule: Q01DX001 (ip), vehicle: distilled water + Tween-80) 95 % of control; (endpoint: mean survival time, dose: 500.0 mg/kg/injection, schedule: Q01DX001 (ip), vehicle: distilled water + Tween-80) 92 % of control.

Values taken from PubChem BioAssay AID256 (DTP/NCI, 2004).
